Source: ChEMBL document CHEMBL5055643, “Sophoraflavanone G Resensitizes ABCG2-Overexpressing Multidrug-Resistant Non-Small-Cell Lung Cancer Cells to Chemotherapeutic Drugs” (J Nat Prod, 2021)

What was measured:
[1] = test system: KB 3-1; assay: Chemo-sensitizing activity against human KB 3-1 cells assessed as reversal fold at 5 uM measured after 72 hrs in presence of colchicine by CCK8 assay relative to control; assay type: functional
[2] = test system: KB-V1; assay: Chemo-sensitizing activity against ABCB1-oveexpressing human KB-V1 cells assessed as reversal fold at 5 uM measured after 72 hrs in presence of colchicine by CCK8 assay relative to control; assay type: functional
[3] = test system: HEK293; assay: Chemo-sensitizing activity against human HEK293 cells assessed as reversal fold at 5 uM measured after 72 hrs in presence of mitoxatrone by CCK8 assay relative to control; assay type: functional
[4] = test system: HEK293; assay: Chemo-sensitizing activity against human HEK293 cells assessed as reversal fold at 1 uM measured after 72 hrs in presence of colchicine by CCK8 assay relative to control; assay type: functional
[5] = test system: KB 3-1; assay: Chemo-sensitizing activity against human KB 3-1 cells assessed as reversal fold at 2 uM measured after 72 hrs in presence of colchicine by CCK8 assay relative to control; assay type: functional
[6] = Cytotoxicity against becatecarin-selected ABCG2-overexpressing human A549/Bec150 cells assessed as cell viability at 1 to 5 uM measured after 72 hrs by CCK8 assay; assay type: ADME, cell-based; details: dose 1-5 µM, read-out: Activity
[7] = test system: A549; assay: Chemo-sensitizing activity against human A549 cells assessed as reversal fold at 1 uM measured after 72 hrs in presence of topotecan by CCK8 assay relative to control; assay type: functional
[8] = test system: KB-V1; assay: Chemo-sensitizing activity against ABCB1-overexpressing human KB-V1 cells assessed as reversal fold at 5 uM measured after 72 hrs in presence of vincristine by CCK8 assay relative to control; assay type: functional
[9] = test system: HEK293; assay: Chemo-sensitizing activity against human HEK293 cells assessed as reversal fold at 5 uM measured after 72 hrs in presence of colchicine by CCK8 assay relative to control; assay type: functional
[10] = test system: OVCAR-8; assay: Chemo-sensitizing activity against human OVCAR-8 cells assessed as reversal fold at 5 uM measured after 72 hrs in presence of colchicine by CCK8 assay relative to control; assay type: functional
[11] = test system: HEK293; assay: Chemo-sensitizing activity against ABCG2-overexpressing human HEK293/482R cells assessed as reversal fold at 5 uM measured after 72 hrs in presence of SN-38 by CCK8 assay relative to control; assay type: functional
[12] = test system: HEK293; assay: Chemo-sensitizing activity against ABCB1-overexpressing human HEK293/MDR19 cells assessed as reversal fold at 2 uM measured after 72 hrs in presence of colchicine by CCK8 assay relative to control; assay type: functional
[13] = test system: A549; assay: Chemo-sensitizing activity against human A549 cells assessed as reversal fold at 5 uM measured after 72 hrs in presence of topotecan by CCK8 assay relative to control; assay type: functional
[14] = test system: HEK293; assay: Chemo-sensitizing activity against human HEK293 cells assessed as reversal fold at 1 uM measured after 72 hrs in presence of vincristine by CCK8 assay relative to control; assay type: functional
[15] = test system: HEK293; assay: Chemo-sensitizing activity against ABCB1-overexpressing human HEK293/MDR19 cells assessed as reversal fold at 5 uM measured after 72 hrs in presence of colchicine by CCK8 assay relative to control; assay type: functional
[16] = test system: A549; assay: Chemo-sensitizing activity against human A549 cells assessed as reversal fold at 2 uM measured after 72 hrs in presence of SN-38 by CCK8 assay relative to control; assay type: functional

C=C(C)[C@H](CC=C(C)C)Cc1c(O)cc(O)c2c1O[C@H](c1ccc(O)cc1O)CC2=O [SOPHORAFLAVANONE G]
fold change (FC) [1]: 1.1
fold change (FC) [2]: 0.8
fold change (FC) [3]: 1.1
fold change (FC) [4]: 1
fold change (FC) [5]: 1.1
viability at 72 h, up to 5 µM [6]: > 90%
fold change (FC) [7]: 1.1
fold change (FC) [8]: 1.3
fold change (FC) [9]: 1
fold change (FC) [10]: 1.1
fold change (FC) [11]: 6.4
fold change (FC) [12]: 0.8
fold change (FC) [13]: 1.4
fold change (FC) [14]: 1
fold change (FC) [15]: 0.6
fold change (FC) [16]: 1.1
